Glucose level data for 2 compounds are collected here from ChEMBL document CHEMBL1134526, “Enantioselective syntheses of potent retinoid X receptor ligands: differential biological activities of individual antipodes” (J Med Chem, 2001).

Assay type in all cases: functional
The test system of assay [1] is Mus musculus. Briefly: Hypoglycemic activity in mice at 2 mg/kg dose at day=0.
For assay [2], the system named is Mus musculus. Briefly: Hypoglycemic activity in mice at 8 mg/kg dose at day=7.
Assay [3] deals with Mus musculus. Briefly: Hypoglycemic activity in mice at 8 mg/kg dose at day=0.
Assay [4] relates to Mus musculus. Briefly: Hypoglycemic activity in mice at 2 mg/kg dose at day=7.
For assay [5], the system named is Mus musculus. Briefly: Hypoglycemic activity in mice at 0.4 mg/kg dose at day=0.
Assay [6] concerns Mus musculus. Briefly: Hypoglycemic activity in mice at 0.4 mg/kg dose at day=7.

For `CC(/C=C/[C@H]1C[C@@]1(C)c1ccc2c(c1)C(C)(C)CCC2(C)C)=C\C(=O)O`, the Glucose level in the assay on Mus musculus [1] worked out at 400 mg/dL; with Mus musculus [2], 441 mg/dL; with Mus musculus [3], 404 mg/dL; in the assay on Mus musculus [4] it was 391 mg/dL.

As to `CC(/C=C/[C@@H]1C[C@]1(C)c1ccc2c(c1)C(C)(C)CCC2(C)C)=C\C(=O)O` [IRX-4204], the Glucose level in the assay on Mus musculus [5] is 406 mg/dL; in the assay on Mus musculus [1] it was 404 mg/dL; in the assay on Mus musculus [6] it was 291 mg/dL; in the assay with Mus musculus [4], 221 mg/dL.
